Patent US20170328922A1, “METHODS AND PRODUCTS FOR LABELLING LIPIDS” (UNIVERSITY OF SOUTH AUSTRALIA, priority 2014, published 2017)

Tests used:
[1] = Rhenium molecular probe-lipid overlay (dot blot); type: binding; set-up: key to interaction with Cholestrol (dot blot): ✓ indicates a positive interaction; x indicates no interaction; conditions: for affinity towards cholesterol, in words: FIG. 7 / FIG. 8; for interaction with Cholestrol (dot blot): 10 μM probe, 50 μM lipid on PVDF membrane
Protocol: (§1) The experimental protocol probe-lipid overlay was as follows: 50 μM of each lipids was loaded on to PVDF membranes (Perkin Elmer, USA), which were then incubated with molecular probes. PhenCyano and PhenPyridyl were assessed against eleven lipids including; sphingomyelin (Cat # S0756, Sigma Aldrich, USA), sphingosine (Cat # S7049; Sigma Aldrich, USA), L-phosphatidylethanolamine (Cat # P7943, Sigma Aldrich, USA), monosialodanglioside (GM1; Cat # G7641, Sigma Aldrich, USA), oleoly-L-?-lysophosphatidic acid (Cat # L7260, Sigma Aldrich, USA), palmitic acid (Cat # P5917, Sigma Aldrich, USA), sphingomyelin (Cat # S0756, Sigma Aldrich, USA), sphingosine (Cat # S7049; Sigma Aldrich, USA), L-?-phosphatidylethanolamine (Cat # P7943, Sigma Aldrich, USA), monosialodanglioside (GM1; Cat # G7641, Sigma Aldrich, USA), progesterone (Cat #102722, MP Biomedical, USA), ceramide (Cat # C2137; Sigma Aldrich, USA), triacylglycerol mix C2-C10 (Cat #17810, Sigma Aldrich, USA) and cholesteryl acetate (Cat #151114; Sigma Aldrich, USA).
(§2) All other molecular probes were assessed against a panel of six lipids including; sphingomyelin (Cat # S0756, Sigma Aldrich, USA), sphingosine (Cat # S7049; Sigma Aldrich, USA), L-?-phosphatidylethanolamine (Cat # P7943, Sigma Aldrich, USA), monosialodanglioside (GM1; Cat # G7641, Sigma Aldrich, USA), sphingomyelin (Cat # S0756, Sigma Aldrich, USA), sphingosine (Cat # S7049; Sigma Aldrich, USA), L-?-phosphatidylethanolamine (Cat # P7943, Sigma Aldrich, USA), monosialodanglioside (GM1; Cat # G7641, Sigma Aldrich, USA) and triacylglycerol mix C2-C10 (Cat #17810, Sigma Aldrich, USA).
(§3) Lipids were dissolved in ethanol, methanol or isopropanol for loading depending on solubility. Following lipid loading, membranes were left to dry for 20-30 minutes, then they were washed for 10 minutes in cold 10% ethanol, before they were incubated with 10 μM solution of each Rhenium molecular probe in cold 10% ethanol for one hour. Membranes were than washed four times for 10 minutes in cold 10% ethanol prior to imaging. Imaging was performed on an Image Quant Las 4000 (GE, Sweden) luminescent image analyser, with the Rhenium molecular probe being detected by excitation at 460 nm using an epi-blue light source, and detected using an 575 nm ethidium bromide filter.

[2] = system: Drosophila fat body cells; experiment: Live tissue staining with rhenium molecular probes (Examples 10, 13); type: cell-based; conditions: live samples, 10-20 μM probe
Protocol: (§4) Probes were dissolved in DMSO to obtain a stock solution with a concentration of 10 mM. Stock solutions were stored at room temperature in a dark place. Working solutions were prepared only at the time of use as the probe has reduced solubility in aqueous solutions. A Working solution was a dilution 1/1000 to 1/500 of the stock in DMSO to PBS or cell medium, and as such the percentage of DMSO used in actual cell experiments was less than 1%.
(§5) For tissues, the tissues were isolated in PBS (or other physiological media) and mounted on a coverslip. For cells, these were grown as per normal practice on coverslips.
(§6) The media was removed media and replaced with 10-20 μM solution of molecular probes in PBS (or appropriate physiological media/cell media) at a dilution of stock solution from 1/1000-1/500, for 15-30 minutes at physiologically appropriate temperature (37° C. for cell culture or 25° C. for insect larvae). […] If foetal calf serum is necessary for cell health, an increased incubation time may be necessary to obtain adequate staining.
The samples were washed for one minute in PBS. If co-staining was performed, the samples were washed in PBS for 30 seconds, before incubating with counterstain.
Tissues were mounted in optical coupling gel, such as carbomer-940 (Snowdrift farm, Tucson, USA) based gel to prevent dehydration prior to imaging and maintain tissue integrate (Rothstein, E. C., Nauman, M., Chesnick S., Balaban R. S., 2006, Multi-photon excitation microscopy in intact animals Journal of Microscopy 222, 58, 64). For cells, the coverslip was mounted in PBS for immediate imaging.
Samples were imaged immediately following staining.
Rhenium molecular probes were? excited at 800-830 nm using a two-photon pulse laser or 405 steady state laser and detection in the range of 490-670 nm, with an emission maxima at around 570.
Micrographs of 3T3 L1, 453 cells and CHOK1 cells and Drosophila fat body tissue stained with rhenium molecular probes, PhenCyan top, PhenPyridyl bottom are shown in FIG. 10. […] Left: confocal images; Right: fluorescence microscopy images. […]

[3] = Rhenium molecular probe-lipid overlay (dot blot); type: binding; conditions: FIG. 7
Protocol: as §1, §3

[4] = Rhenium molecular probe-lipid overlay (dot blot); type: binding; conditions: FIG. 7
Protocol: as §1, §3

[5] = Rhenium molecular probe-lipid overlay (dot blot); type: binding; set-up: key to interaction with Cholestryl acetate (dot blot): ✓ indicates a positive interaction; x indicates no interaction
Protocol: as §1, §3

[6] = Rhenium molecular probe-lipid overlay (dot blot); type: binding; set-up: key to interaction with PE (dot blot): ✓ indicates a positive interaction; x indicates no interaction; conditions: for interaction with PE (dot blot): 10 μM probe, 50 μM lipid on PVDF membrane; for affinity towards phosphatidylethanolamine (PE), in words: FIG. 7 / FIG. 8
Protocol: as §1, §2, §3

[7] = Rhenium molecular probe-lipid overlay (dot blot); type: binding; set-up: key to interaction with Sphingomyline (dot blot): ✓ indicates a positive interaction; x indicates no interaction; conditions: for interaction with Sphingomyline (dot blot): 10 μM probe, 50 μM lipid on PVDF membrane; for affinity towards sphingomyelin, in words: FIG. 7 / FIG. 8
Protocol: as §1, §2, §3

[8] = Rhenium molecular probe-lipid overlay (dot blot); type: binding; conditions: FIG. 7
Protocol: as §1
Lipids were dissolved in ethanol, methanol or isopropanol for loading depending on solubility. […] Imaging was performed on an Image Quant Las 4000 (GE, Sweden) luminescent image analyser, with the Rhenium molecular probe being detected by excitation at 460 nm using an epi-blue light source, and detected using an 575 nm ethidium bromide filter.

[9] = Rhenium molecular probe-lipid overlay (dot blot); type: binding; set-up: key to interaction with Sphingosine (dot blot): ✓ indicates a positive interaction; x indicates no interaction; conditions: for affinity towards sphingosine, in words: FIG. 7 / FIG. 8; for interaction with Sphingosine (dot blot): 10 μM probe, 50 μM lipid on PVDF membrane
Protocol: as §1, §2, §3

[10] = Rhenium molecular probe-lipid overlay (dot blot); type: binding; set-up: key to interaction with GM1 (dot blot): ✓ indicates a positive interaction; x indicates no interaction; conditions: for interaction with GM1 (dot blot): 10 μM probe, 50 μM lipid on PVDF membrane; for affinity towards monosialotetrahexosylganglioside (GM1), in words: FIG. 7 / FIG. 8
Protocol: as §1, §2, §3

3T3 L1 cells = experiment: Live cell staining with rhenium molecular probes; type: cell-based; conditions: live samples, 10-20 μM probe
Protocol: as §4, §5, §6
The samples were washed for one minute in PBS. […]
Micrographs of 3T3 L1, 453 cells and CHOK1 cells and Drosophila fat body tissue stained with rhenium molecular probes, PhenCyan top, PhenPyridyl bottom are shown in FIG. 10. […] Left: confocal images; Right: fluorescence microscopy images.

[11] = Rhenium molecular probe-lipid overlay (dot blot); type: binding; set-up: key to interaction with Triglycerides (dot blot): ✓ indicates a positive interaction; x indicates no interaction; conditions: for interaction with triglycerides, in words: FIG. 7 / FIG. 8; for interaction with Triglycerides (dot blot): 10 μM probe, 50 μM lipid on PVDF membrane
Protocol: as §1, §2, §3

[12] = Rhenium molecular probe-lipid overlay (dot blot); type: binding; set-up: key to interaction with Lysophosphatidic acid (dot blot): ✓ indicates a positive interaction; x indicates no interaction
Protocol: as §1, §3

[13] = system: Drosophila fat body tissue; experiment: Live staining and confocal imaging of explanted fat body tissue; type: cell-based; conditions: fixed fat body, nutrient deprivation/starvation conditions
Protocol: All stocks were maintained in standard medium at 25° C. The yeast GAL4-UAS system was used for targeted gene expression (Brand and Perrimon, 1993). Fat-body specific expression of transgenes from the UAS were driven by CG-GAL4 (Asha et al., 2003). Transgenic UAS-Atg9RNAi stocks (#34901) and UAS-TorTED stocks (#7013) were obtained from the Bloomington Drosophila Stock Centre (Indiana University, IN, USA). Atg8aGFP was driven by an endogenous promoter (Kelso et al., 2004).
Bromophenol-blue was added to the fly media and used to define different developmental time points. […] Newly formed white pupae (0 h PF), were isolated onto moist filter paper and incubated at 25° C. for either two hours (+2 h PF) or four hours (+4 h PF).
Third instar larvae at −8 h PF were removed from standard media (normally feeding at this developmental stage) and placed on filter paper either soaked in 5% (w/v) sucrose (for amino acid deprivation), or 5% (w/v) tryptone pancreatic digest of casein (BD Bioscience USA; for carbohydrate deprivation), or soaked in water (for complete starvation). Larvae were incubated for 4-5 hours prior tissue isolation and imaging.
Fat body tissue was dissected into PBS from Drosophila larvae or pupae. The fat body tissue was either incubated with 10 μM tricarbonyl phenanthrolin (4-cyanophenyltretrazolato) Rhenium (I) in PBS for 15 minutes at room temperature, or LysoTracker® green (according to manufacturer instructions; Invitrogen, USA) and then mounted in carbomer-940 (Snowdrift farm, Tucson, USA) based optical coupling gel to prevent dehydration prior to imaging (Rothstein et al., 2006). For Oil Red O staining, fat body tissue was fixed in 4% (v/v) paraformaldehyde for 20 minutes, and incubated in 1/100 Oil Red 0 for 30 minutes and then washed in PBS before mounting in 80% glycerol.
A Ziess LSM710 META NLO confocal microscope (Zeiss, Germany), supplemented with a two-photon Mai-Tai® (tunable Ti:Sapphire femtosecond pulse laser, 710-920 nm, Spectra-Physics, Australia) was used for imaging. The images were acquired using a Plan-APOCHROMAT 63×/NA1.4 oil immersion objective. The Rhenium probe was excited at 830 nm using the two-photon pulse laser and detect at 600-654 nm. LysoTracker® green was imaged by excitation at 488 nm and detected at 497-558 nm. Atg8a-GFP was imaged with the Rhenium probe by excitation at 830 nm and resolved using spectral un-mixing using the Zen software package (based on spectral figure-printing of the two components). The Rhenium probe images and co-location analysis involved at least five separate images from five independent biological replicates, and one representative image from each treatment was selected for presentation (containing a minimum of 2 cells). For image quantification, two regions of interest (ROI) were selected at random with an area of 2500 μm^2 and the number of fluorescent puncta within the area counted, to give a minimum of 10 counts per treatment group. Comparison of means was performed by ANOVA with a Tukey post hoc tested in GraphPad Prism V.6.01 (USA).

[14] = 10 μM probe, 50 μM lipid on PVDF membrane

Compound | affinity towards cholesterol, in words [1] | interaction with PE (dot blot) [6] | affinity towards phosphatidylethanolamine (PE), in words [6] | interaction with Sphingomyline (dot blot) [7] | affinity towards sphingomyelin, in words [7] | affinity towards sphingosine, in words [9] | interaction with GM1 (dot blot) [10] | affinity towards monosialotetrahexosylganglioside (GM1), in words [10] | interaction with triglycerides, in words [11] | interaction with Cholestrol (dot blot) [1] | interaction with Sphingosine (dot blot) [9] | interaction with Triglycerides (dot blot) [11] | further results
O=[C]=[Re](=[C]=O)(=[C]=O)[n]1nnc(-c2cccnc2)n1.c1cnc2c(c1)ccc1cccnc12 [PhenPyridyl, Triscarbonyl phenanthroline (3-pyridyltetrazolato)Rhenium(I)] | some affinity | ✓ | some affinity | ✓ | some affinity | some affinity | ✓ | some affinity | no interaction detected | – | – | – | staining pattern in Drosophila fat body cells [2]: limited to no lipid droplet staining; affinity towards progesterone, in words [3]: some affinity; interaction with ceramide, in words [4]: no interaction detected; interaction with Cholestryl acetate (dot blot) [5, 14]: x; interaction with cholesterol ester (cholesteryl acetate), in words ([5]; FIG. 7): no interaction detected; interaction with fatty acid (palmitic acid), in words [8]: no interaction detected; staining pattern in 3T3 L1 cells (3T3 L1 cells): limited to no lipid droplet staining; interaction with Lysophosphatidic acid (dot blot) [12, 14]: ✓; affinity towards lysophosphatidic acid, in words ([12]; FIG. 7): some affinity
Cc1ccc(C)c(N=Nc2cc(C)c(N=Nc3c(O)ccc4ccccc34)cc2C)c1 [oil red, reference compound] | – | – | – | – | – | – | – | – | – | – | – | – | colocalisation of staining with Atg8a-GFP [13]: did not appear to colocalise
facial-Tricarbonyl (η^1(N2)-5- cyanophen-4′-yl tetrazolato) η^2-2,2′- bipyridine Rhenium(I) [BiphenCyano] | varying affinity | ✓ | varying affinity | ✓ | varying affinity | varying affinity | ✓ | varying affinity | – | ✓ | ✓ | x | –
COC(=O)c1ccc(-c2nn[n]([Re](=[C]=O)(=[C]=O)=[C]=O)n2)cc1.c1cnc2c(c1)ccc1cccnc12 [PhenEster] | varying affinity | ✓ | varying affinity | ✓ | varying affinity | varying affinity | ✓ | varying affinity | appeared to interact | ✓ | ✓ | ✓ | –
facial-Tricarbonyl (η^1(N2)-5-(methyl bcnzoate-4′-yl tetrazolato) η^2-2,2′- bipyridine Rhenium(I) [BiphenEster] | varying affinity | ✓ | varying affinity | ✓ | varying affinity | varying affinity | ✓ | varying affinity | appeared to interact | – | – | ✓ | –
